We go through six compounds from publication PMC11161644, “An effective and rapidly degradable disinfectant from disinfection byproducts” (Nature Communications, 2024).

Data set [1] is described as follows: UPLC/ESI-tqMS time profile of 2,6-DCQ and its degradation products in simulated seawater (pH 8.2, darkness); OH-DCQ formation. As to conditions: 2,6-DCQ degradation, pH 8.2, darkness. The protocol: A Waters UPLC system coupled with ESI-tqMS was used to characterize the degradation products of 2,6-DCQ. The UPLC separation was performed using an HSS T3 column (100 × 2.1 mm, 1.8 μm particle size, Waters) with a column temperature of 35 °C. A gradient eluent of methanol–water was applied at a flow rate of 0.4 mL min^−1. The gradient program was set as follows: methanol/water (v/v) ratio changed linearly from 5/95 to 90/10 in the first 8 min and then returned to 5/95 during 8.0‒8.1 min, which was held for 2.9 min for re-equilibration. The ESI-tqMS was set as follows: ESI negative mode, capillary voltage 2.8 kV, cone voltage 10–50 V (depending on analytes), cone gas flow 50 L h^−1, source temperature 120 °C, desolvation temperature 400 °C, desolvation gas flow 800 L h^−1, collision energy 15–50 eV (depending on analytes), collision gas (argon) flow 0.25 mL min^−1, and mass resolution 15 (1-unit resolution).
The degradation of 2,6-DCQ in seawater was simulated by adding 10 mg L^−1 2,6-DCQ to 50 mL ultrapure water, which was adjusted to pH 8.2 with 5 mM sodium carbonate (to simulate the alkalinity in seawater and also to be compatible with the subsequent UPLC/ESI-tqMS analysis). The sample was kept in darkness for 0–24 h, during which the pH of the sample was maintained at 8.1 ± 0.1. At a designated reaction time, 7.5 μL of the sample was injected into the UPLC system. For a nonhalogenated degradation product, the selected ion recording (SIR) mode with a dwell time of 0.05 s was adopted to obtain the retention time. For halogenated degradation products, the multiple reaction monitoring mode with a dwell time of 0.05 s was used to obtain the retention time and the isotopic abundance ratio. To investigate the time-dependent profile of 2,6-DCQ and its degradation products, the peak area of each compound was determined using the SIR mode in the UPLC/ESI-tqMS analysis.
The second aliquot was subjected to analysis of total organic halogen to quantify the collected OH-DCQ. The determination of total organic halogen was based on Standard Method 5320B[52], with modifications of using off-line ion chromatography for halide detection. Briefly, the aliquot was dissolved in 100 mL ultrapure water and acidified to pH 2 with concentrated nitric acid[52] prior to adsorption onto pre-packed activated carbon columns (Mitsubishi). A three-channel adsorption module (TXA03C, Mitsubishi Chemical Analytech) was used for adsorption. An AQF-100 automatic quick furnace (Mitsubishi Chemical Analytech) was used for pyrolysis. During the pyrolysis process, the chlorine atoms in OH-DCQ were converted to chloride. The chloride ion concentration was determined using an ICS-3000 ion chromatography system (Dionex). 2,6-DCQ was used as a standard compound for measuring total organic halogen to determine the recovery of the analysis. The total organic halogen analysis was conducted in duplicate.

The next data set relates to E. coli (ATCC 25922). The experiment in a line: Inactivation of E. coli by disinfectants (membrane filter enumeration, contact time 5 min). As to conditions: for log reduction at 3000 µg/mL: Escherichia coli, ATCC25922, 5 min, dose 3000 mg L-1, 5 min, read-out: Log (N/N0); for E. coli inactivation rate constant k / Log reduction (Mean ± SD): pH 7.2, contact time 5 min; for Log reduction (Mean ± SD): E. coli. It is filed as cell-based, Escherichia coli. The protocol: The chemicals and reagents used are detailed in Supplementary Note 1. The bacteria E. coli (ATCC 25922) and S. aureus (ATCC 25923) were cultured aerobically in Luria-Bertani broth (Sigma-Aldrich) and Tryptone Soya broth (Oxoid), respectively, at 37 °C for 16 h. The fungus C. albicans (ATCC 14053) was aerobically cultured in Sabouraud Dextrose broth (Difco) at 37 °C for 24 h. The microorganism cells were harvested by centrifugation at 1200×g (10 min, 4 °C) and resuspended in phosphate-buffered saline (PBS, 10 mM, pH 7.2). The disinfection experiments were performed in PBS solutions (10 mM, pH 7.2) with an initial concentration of E. coli, S. aureus, or C. albicans of 10^6‒10^7 cells per milliliter. A contact time of 5 min was used in accordance with the recommended time range of 0.25–10 min by USEPA for surface disinfection. Preliminary tests were conducted to determine the appropriate range of DBP doses. The appropriate dose range was established when the lowest and highest doses could achieve <1-log and >3-log of microbial inactivation, respectively. Based on the preliminary results, a series of doses of DBPs were added to the cell suspensions at room temperature (22 ± 1 °C). After the contact time of 5 min, the microorganism cells were enumerated following a membrane filter method. Briefly, serial 10-fold dilutions were conducted for the disinfected samples and the control sample without disinfection. Each diluted suspension was subjected to filtration through 0.45-μm membrane, which was then placed on a petri dish. The Petri dishes containing E. coli, S. aureus, and C. albicans were incubated in m-FC medium (Becton Dickinson & Co) at 45 °C for 24 h, in Tryptone Soya broth at 37 °C for 24 h and in Sabouraud Dextrose broth at 37 °C for 24 h, respectively. After incubation, the colony-forming units within a statistically reasonable range (20–80) were counted.
The impact of pH on the disinfection efficiencies of DBPs was examined. E. coli (ATCC 25922) was used as the test strain. The disinfection experiments were performed in 10 mM PBS solutions (pH 6.2, 7.2, and 8.2) with an initial E. coli concentration of 10^6‒10^7 cells per milliliter. To initiate the disinfection, a DBP was dosed with a bacteria suspension at a predetermined concentration. After the given contact time (5 min) at room temperature (22 ± 1 °C), the bacteria were enumerated following the membrane filter method. The bacteria concentrations in the 10 mM PBS solutions (pH 6.2, 7.2, and 8.2) without the addition of DBPs were used as controls.

Like-named read-outs stand apart in the source and are kept apart here.

On to `O=C1C=C(Cl)C(=O)C=C1O` [SIR 157, 3-hydroxyl-6-monochloro-1,4-benzoquinone], for which the Peak area is reported as 131 in data set [1] (0 h); 1090 in data set [1] (0.25 h); 1291 in data set [1] (0.5 h); 1521 in data set [1] (0.75 h); 1656 in data set [1] (1 h); 1663 in data set [1] (1.25 h). Moreover, the Peak area in data set [1] (1.5 h) is recorded as 1773; in data set [1] (1.75 h), 1891; in data set [1] (2 h), 1830; in data set [1] (2.25 h), 2020; in data set [1] (2.5 h) it was 2128; in data set [1] (2.75 h), 2115. For the same compound, the Peak area in data set [1] (3 h) is 2124; in data set [1] (3.25 h) it was 2427; in data set [1] (3.5 h) it was 2418; in data set [1] (3.75 h), 2409; in data set [1] (4 h), 2447; in data set [1] (4.5 h), 2594. In addition, the Peak area in data set [1] (5 h) is reported as 2821; in data set [1] (5.5 h) it was 2983; in data set [1] (6 h), 3514; in data set [1] (8 h) it was 4489; in data set [1] (10 h), 4560; in data set [1] (12 h), 4418. The Peak area in data set [1] (14 h) is reported as 4868; in data set [1] (16 h), 4755; in data set [1] (18 h), 4648; in data set [1] (20 h), 5024; in data set [1] (24 h) it was 4289.

Regarding `O=C(O)c1cc(I)ccc1O` [5-ISA, 5-iodosalicylic acid], the log reduction at 3000 µg/mL was 0.247 in the data set with E. coli (ATCC 25922) (pH 6.2, E. coli, pH 6.2); 0.373 with E. coli (ATCC 25922) (pH 7.2, E. coli, pH 7.2); 0.282 with E. coli (ATCC 25922) (pH 8.2, E. coli, pH 8.2). Further, the “E. coli inactivation rate constant k” value with E. coli (ATCC 25922) is less than 0.01 L mg‒1 h‒1.

`O=C1C=C(Cl)C(=O)C=C1Cl` [2,5-DCQ]: the “Log reduction (Mean ± SD)” value with E. coli (ATCC 25922) (dose 7.5 mg L−1) came out at 0.77 ± 0.14; in the data set on E. coli (ATCC 25922) (dose 15 mg L−1), 3.78 ± 0.40.

Consider `O=C(O)c1cc(Br)ccc1O` [5-BSA, 5-bromosalicylic acid], for which the log reduction at 3000 µg/mL in the data set with E. coli (ATCC 25922) (pH 6.2, E. coli, pH 6.2) is 0.221; in the data set with E. coli (ATCC 25922) (pH 7.2, E. coli, pH 7.2), 0.132; in the data set on E. coli (ATCC 25922) (pH 8.2, E. coli, pH 8.2), 0.331. Besides, the “E. coli inactivation rate constant k” value in the data set on E. coli (ATCC 25922) is less than 0.01 L mg‒1 h‒1.

As for `O=C1C=C(Cl)C(=O)C(OC2=C(Cl)C(=O)C(Cl)=CC2=O)=C1` [SIR 333], the Peak area is 25 in data set [1] (0 h); 566 in data set [1] (0.25 h); 1172 in data set [1] (0.5 h); 1708 in data set [1] (0.75 h); 2037 in data set [1] (1 h); 2462 in data set [1] (1.25 h). Moreover, the Peak area is on record as 2725 in data set [1] (1.5 h); 2905 in data set [1] (1.75 h); 3055 in data set [1] (2 h); 3331 in data set [1] (2.25 h); 3689 in data set [1] (2.5 h); 3558 in data set [1] (2.75 h). In addition, the Peak area in data set [1] (3 h) is 3681; in data set [1] (3.25 h), 3675; in data set [1] (3.5 h) it was 3524; in data set [1] (3.75 h), 3765; in data set [1] (4 h) it was 3768; in data set [1] (4.5 h), 3886. Also, the Peak area in data set [1] (5 h) is listed as 4092; in data set [1] (5.5 h), 3835; in data set [1] (6 h), 3706; in data set [1] (8 h), 3365; in data set [1] (10 h) it was 2830; in data set [1] (12 h), 2308. For the same compound, the Peak area in data set [1] (14 h) was 1768; in data set [1] (16 h), 1379; in data set [1] (18 h) it was 1089; in data set [1] (20 h) it was 896; in data set [1] (24 h), 463.

Consider `O=C(O)c1cc(Cl)ccc1O` [5-CSA, 5-chlorosalicylic acid], for which the log reduction at 3000 µg/mL in the data set with E. coli (ATCC 25922) (pH 6.2, E. coli, pH 6.2) was 0.218; with E. coli (ATCC 25922) (pH 7.2, E. coli, pH 7.2) it was 0.273; in the data set on E. coli (ATCC 25922) (pH 8.2, E. coli, pH 8.2), 0.304. The “E. coli inactivation rate constant k” value in the data set with E. coli (ATCC 25922) is given as less than 0.01 L mg‒1 h‒1.
